± gives the standard deviation of the averaged measurements.
What was measured:
Test in all cases: level (log10 ratio to DMSO vehicle control); higher = higher biomarker level / cell amount than vehicle control
[1] = compound: O=C(O)C=C(C(F)(F)F)C(F)(F)F [3,3-Bis(trifluoromethyl)-2-propenoic acid] (in DMSO)
Procedure: (§1)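 BioMAP Diversity Plus panel of 12 human primary cell co-culture systems (3C, 4H, LPS, SAg, BT, BF4T, BE3C, CASM3C, HDF3CGF, KF3CT, MyoF, Mphg). Compounds were added 1 h before stimulation and left for 24 h (MyoF 48 h; BT 72 h for soluble read-outs or 6 d for IgG). Biomarkers were read by ELISA, cytotoxicity by SRB, PBMC viability and proliferation by Alamar Blue. Each well value was divided by the mean of 8 DMSO control wells on the same plate and log10 transformed; duplicate blinded samples were tested at 4 concentrations.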

[2] = compound: O=C(O)CCC(F)(C(F)(F)F)C(F)(F)F [4,4-bis(Trifluoromethyl)-4-fluoropropanoic acid] (in DMSO)
Procedure: as §1

[3] = compound: O=C(O)C(F)(F)C(F)(F)C(F)(F)OC(F)(F)F [Perfluoro(4-methoxybutanoic) acid] (in DMSO)
Procedure: as §1

[4] = compound: OCCC(F)(F)C(F)(F)C(F)(F)C(F)(F)F [4:2 Fluorotelomer alcohol] (in DMSO)
Procedure: as §1

[5] = compound: O=C(O)C(F)(OC(F)(F)C(F)(OC(F)(F)C(F)(OC(F)(F)C(F)(F)C(F)(F)F)C(F)(F)F)C(F)(F)F)C(F)(F)F [Perfluoro-(2,5,8-trimethyl-3,6,9-trioxadodecanoic)acid] (in DMSO)
Procedure: as §1

[6] = compound: OCC(F)(F)C(F)(F)C(F)(F)C(F)(F)C(F)(F)C(F)(F)CO [1H,1H,8H,8H-Perfluorooctane-1,8-diol] (in DMSO)
Procedure: as §1

Row | Test System | level (log10) ([1]; 6700 nM) | level (log10) ([1]; 20000 nM) | level (log10) ([1]; 60000 nM) | level (log10) ([2]; 6700 nM) | level (log10) ([2]; 20000 nM) | level (log10) ([2]; 60000 nM) | level (log10) ([3]; 6700 nM) | level (log10) ([3]; 20000 nM) | level (log10) ([3]; 60000 nM) | level (log10) ([4]; 6700 nM) | level (log10) ([4]; 20000 nM) | level (log10) ([4]; 60000 nM) | level (log10) ([5]; 1100 nM) | level (log10) ([5]; 3300 nM) | level (log10) ([5]; 10000 nM) | level (log10) ([6]; 6700 nM) | level (log10) ([6]; 20000 nM) | level (log10) ([6]; 60000 nM)
1 | KF3CT:CXCL10/IP-10 | -0.01 ± 0.013 | -0.027 ± 0.0014 | -0.0225 ± 0.019 | -0.0055 ± 0.0021 | -0.0005 ± 0.00071 | -0.0005 ± 0.0064 | 0.002 ± 0.011 | -0.0025 ± 0.0035 | 0.006 ± 0.0099 | 0.009 ± 0.04 | -0.0005 ± 0.00071 | 0.019 ± 0.024 | -0.0005 ± 0.0021 | 0.0035 ± 0.0078 | 0.0025 ± 0.011 | -0.003 ± 0.0028 | -0.001 ± 0.014 | -0.009 ± 0.0085
2 | HDF3CGF:CXCL11/I-TAC | -0.038 ± 0.011 | -0.0555 ± 0.035 | -0.033 ± 0.054 | -0.035 ± 0.079 | -0.0465 ± 0.074 | -0.0745 ± 0.12 | -0.0035 ± 0.005 | 0.0045 ± 0.0078 | -0.0075 ± 0.0035 | -0.039 ± 0.035 | 0.011 ± 0.0014 | -0.0275 ± 0.029 | -0.0015 ± 0.011 | 0.003 ± 0.014 | -0.0265 ± 0.033 | 0.0145 ± 0.016 | 0.027 ± 0.017 | 0.017 ± 0.013
3 | KF3CT:CXCL9/MIG | 0.0015 ± 0.005 | -0.003 ± 0.0085 | 0.006 ± 0.011 | 0.01 ± 0.011 | 0.0005 ± 0.0078 | 0.006 ± 0.016 | 0.0195 ± 0.0021 | 0.0075 ± 0.0092 | 0.016 ± 0.018 | -0.0055 ± 0.029 | -0.0115 ± 0.021 | -0.0115 ± 0.0035 | 0.0045 ± 0.012 | -0.002 ± 0.0085 | 0.0045 ± 0.0021 | 0.007 ± 0.011 | 0.0025 ± 0.00071 | 0.0105 ± 0.005
4 | KF3CT:CCL2/MCP-1 | -0.0055 ± 0.036 | -0.015 ± 0.014 | -0.028 ± 0.052 | -0.011 ± 0.0057 | -0.0145 ± 0.03 | 0.0015 ± 0.0092 | -0.006 ± 0.011 | 0.0105 ± 0.0021 | 0.0375 ± 0.07 | -0.001 ± 0.02 | -0.0675 ± 0.035 | 0.009 ± 0.048 | -0.017 ± 0.0099 | -0.049 ± 0.025 | 0.011 ± 0.0099 | -0.017 ± 0.0099 | -0.0235 ± 0.03 | 0.0005 ± 0.081
5 | MyoF:TIMP-1 | -0.0545 ± 0.025 | -0.023 ± 0.023 | -0.0085 ± 0.077 | -0.0245 ± 0.091 | -0.042 ± 0.064 | -0.0345 ± 0.025 | -0.0155 ± 0.057 | -0.0185 ± 0.074 | -0.0135 ± 0.071 | -0.001 ± 0.04 | 0.013 ± 0.075 | 0.009 ± 0.059 | 0.007 ± 0.0014 | 0.0155 ± 0.013 | 0.022 ± 0.024 | -0.0125 ± 0.042 | 0.0285 ± 0.042 | 0.0735 ± 0.035
6 | HDF3CGF:CXCL10/IP-10 | -0.0175 ± 0.005 | -0.0445 ± 0.005 | -0.04 ± 0.025 | -0.0175 ± 0.084 | -0.0415 ± 0.088 | -0.0395 ± 0.035 | 0.0145 ± 0.016 | -0.004 ± 0.0042 | -0.004 ± 0.0099 | -0.0075 ± 0.025 | -0.002 ± 0.023 | -0.0095 ± 0.0035 | 0 ± 0.0085 | -0.01 ± 0.0085 | 0.0185 ± 0.026 | -0.01 ± 0.014 | 0.018 ± 0.027 | 0.021 ± 0.034
7 | CASM3C:LDLR | -0.008 ± 0.011 | -0.0175 ± 0.0064 | -0.022 ± 0.016 | -0.0085 ± 0.037 | 0.0045 ± 0.036 | 0.018 ± 0.014 | -0.0135 ± 0.011 | -0.0245 ± 0.023 | 0.0035 ± 0.044 | -0.0485 ± 0.026 | -0.034 ± 0.011 | -0.0455 ± 0.037 | 0.0065 ± 0.011 | 0.004 ± 0.0014 | 0.0025 ± 0.021 | 0.0045 ± 0.005 | -0.0015 ± 0.0035 | 0.0075 ± 0.032
8 | lMphg:CCL2/MCP-1 | -0.007 ± 0.0028 | -0.016 ± 0.0028 | -0.078 ± 0.061 | -0.01 ± 0.017 | 0.0105 ± 0.0064 | 0.011 ± 0.017 | -0.0195 ± 0.026 | -0.0075 ± 0.029 | 0.0265 ± 0.00071 | -0.018 ± 0.024 | -0.0325 ± 0.0035 | -0.014 ± 0.031 | 0.0025 ± 0.012 | -0.0095 ± 0.0078 | -0.0125 ± 0.018 | -0.017 ± 0.0071 | -0.005 ± 0.0042 | 0.008 ± 0.031

— the supplement of paper PMC10331698
